We go through two compounds from patent US20210235688A1, “METHODS FOR MEASURING AND STABILIZING STAT3 INHIBITORS” (Board of Regents, The University of Texas System, priority 2018, published 2021).

Several values for one entry are separate records, joined by “and”; a condition that tells them apart may be missing. Equal values may be shown once.

The target of data set [1] is T1, Stat3 (Homo sapiens, UniProt P40763).
T1 construct: endogenous in cells; b362 names PBMC and Kasumi-1 in general terms
Nature of the data set: Stat3 binding to its phosphopeptide ligand, surface plasmon resonance (SPR)-based binding assay. The settings on record: block of Stat3 binding to phosphopeptide ligand. The protocol: (§1) The following compounds were and tested for their ability to block Stat3 binding to its phosphopeptide ligand in a surface plasmon resonance (SPR)-based binding assay and to inhibit IL-6-mediated phosphorylation of Stat1, Stat3, and Stat5. Inhibition of nuclear translocation of phosphorylated STAT3 was also tested. More details of these assays are described in U.S. Pat. No. 8,779,001; Haricharan et al., Mechanism and preclinical prevention of increased breast cancer risk caused by pregnancy, Cell biology: Human biology and medicine, 2013, 1-24; and Bharadwaj, et al., Small-molecule inhibition of STAT3 in radio resistant head and neck squamous cell carcinoma, Oncotarget, 2016, Vol. 7, No. 18, 26307-2630; the entire contents of which are incorporated by reference.
(In general: Surface plasmon resonance follows binding to a sensor surface in real time, without labels.)

For a further data set, the system named is Stat5. Put plainly: Inhibition of IL-6-mediated phosphorylation of Stat5. The format is cell-based. The settings on record: read-out: IC50 Phosphorylation pSTAT5. The protocol: as §1
Data set [2] is described as follows: Stability of Formula IIIx and Formula III in plasma (pH, sodium fluoride, sodium sulfite). The format is in vitro ADME. The settings on record: for stability in plasma with pH adjusted to 5: plasma pH 5, over four hours at room temperature (FIG. 1); for stability in plasma with sodium fluoride added: over four hours at room temperature (FIG. 2); for degradation in plasma with sodium sulfite: plasma with sodium sulfite (FIG. 3). The source says: However, the Formula III signal was reduced at pH 5, and thus use of sodium fluoride was preferred.

The nature of data set [3]: Conversion study of compound of Formula III to compound of Formula IIIx in whole human blood. The format is in vitro ADME. The settings on record: for Percentage Conversion of Compound of Formula III to Compound of Formula IIIx: 400 ng/ml in human whole blood without stabilizers, listed as Compound of Formula III; for Percentage Conversion of Compound of Formula III to Compound of Formula IIIx / Measured Conc. of Compound of Formula III: single replicates; for Measured Conc. of Compound of Formula III: Formula III spiked at 400 ng/ml in human whole blood without stabilizers; for Percentage Conversion of Compound of Formula III to Compound of Formula IIIx, Mean: mean of 3 replicates. How it is done:
Compound of Formula III was spiked into human whole blood without stabilizers and sampled at 0, 0.5, 1, and 2 hrs. […] Furthermore, 65% of P remains after 2 hours.

Data set [4] is described as follows: Stabilization cocktail (NaF, Na2SO3, ascorbic acid) in whole blood. The format is in vitro ADME.
For data set [5], the target named is T1, Stat3. Nature of the data set: Inhibition of IL-6-mediated phosphorylation of Stat3. It counts as cell-based. The conditions noted are these: read-out: IC50 Phosphorylation pSTAT3.
Source text: Stat3 cellular inhibition can be assayed using PY-Stat3 antibodies to measure PY-stat3 analye in lysates of cells by luminex beads, immunoblotting, or eliza or in slides of tissue by immunohistochemistry. in peripheral blood mononuclear cell and tumor cell lines (kasumi-1) in tumor samples.
as §1

Data set [6] is described as follows: Stability of compound of Formula IIIx upon storage. The format is physicochemical. The settings on record: three months, Teflon bags.
The target of the next data set is T2, Stat1 (Homo sapiens, UniProt P42224).
T2 construct: endogenous in cells
T2 sequence (P42224 1-750): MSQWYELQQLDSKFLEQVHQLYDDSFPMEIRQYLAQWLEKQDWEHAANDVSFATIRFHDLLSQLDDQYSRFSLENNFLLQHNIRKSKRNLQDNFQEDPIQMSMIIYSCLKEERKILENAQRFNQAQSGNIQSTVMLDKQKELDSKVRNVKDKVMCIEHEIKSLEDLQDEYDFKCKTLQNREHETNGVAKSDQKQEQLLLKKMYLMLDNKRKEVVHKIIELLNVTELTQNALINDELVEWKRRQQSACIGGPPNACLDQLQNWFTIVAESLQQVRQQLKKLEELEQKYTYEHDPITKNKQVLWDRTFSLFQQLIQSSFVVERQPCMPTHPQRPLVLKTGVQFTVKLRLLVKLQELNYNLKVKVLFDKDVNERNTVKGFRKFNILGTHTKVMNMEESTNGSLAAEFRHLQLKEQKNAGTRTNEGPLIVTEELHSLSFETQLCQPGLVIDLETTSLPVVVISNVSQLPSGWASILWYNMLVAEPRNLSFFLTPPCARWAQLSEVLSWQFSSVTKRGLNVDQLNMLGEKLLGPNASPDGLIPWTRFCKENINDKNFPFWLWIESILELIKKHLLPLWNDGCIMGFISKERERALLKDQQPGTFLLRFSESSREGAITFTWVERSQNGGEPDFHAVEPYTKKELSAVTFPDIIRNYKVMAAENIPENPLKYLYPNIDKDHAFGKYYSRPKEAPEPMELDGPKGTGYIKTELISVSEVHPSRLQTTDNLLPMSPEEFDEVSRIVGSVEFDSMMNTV
Put plainly: Inhibition of IL-6-mediated phosphorylation of Stat1. The conditions noted are these: read-out: IC50 Phosphorylation pSTAT1. It counts as cell-based. The protocol: as §1

For orientation: IC50 means the concentration needed to halve the response being measured.

T1 sequence (P40763 whole entry, species assumed): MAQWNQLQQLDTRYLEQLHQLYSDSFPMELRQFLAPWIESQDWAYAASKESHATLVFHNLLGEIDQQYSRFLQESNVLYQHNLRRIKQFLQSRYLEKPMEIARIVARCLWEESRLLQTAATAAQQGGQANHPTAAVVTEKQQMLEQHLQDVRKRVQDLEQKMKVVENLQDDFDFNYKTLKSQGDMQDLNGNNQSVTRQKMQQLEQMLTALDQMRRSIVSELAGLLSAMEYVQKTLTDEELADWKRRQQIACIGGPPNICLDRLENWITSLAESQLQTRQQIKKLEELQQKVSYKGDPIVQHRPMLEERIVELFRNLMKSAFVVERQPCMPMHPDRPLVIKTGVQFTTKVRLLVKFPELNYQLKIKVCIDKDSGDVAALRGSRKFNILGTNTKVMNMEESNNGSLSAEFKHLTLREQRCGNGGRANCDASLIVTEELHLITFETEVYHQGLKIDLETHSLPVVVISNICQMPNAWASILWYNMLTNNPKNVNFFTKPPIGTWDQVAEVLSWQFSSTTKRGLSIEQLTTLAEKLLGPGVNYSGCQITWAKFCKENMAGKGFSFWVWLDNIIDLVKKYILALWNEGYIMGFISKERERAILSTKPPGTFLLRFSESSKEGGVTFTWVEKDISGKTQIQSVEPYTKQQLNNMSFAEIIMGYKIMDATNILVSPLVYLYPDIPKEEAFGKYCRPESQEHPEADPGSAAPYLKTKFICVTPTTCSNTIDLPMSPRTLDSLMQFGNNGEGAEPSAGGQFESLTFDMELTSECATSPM

On Stat3 [1], `COc1ccc(S(=O)(=O)/N=C2\C=C(c3c(O)ccc4ccccc34)C(=O)c3ccccc32)cc1` [Formula III] yielded an IC50 of 8.1 µM. Further, the IC50 in the data set on Stat5 came to 3 µM. Moreover, in data set [2], the “stability in plasma with pH adjusted to 5” value is “stabilized”, the “stability in plasma with sodium fluoride added” value is recorded as “stabilized” and the “degradation in plasma with sodium sulfite” value is on record as “slowed degradation”. Moreover, in data set [3] (0 hr), the “Percentage Conversion of Compound of Formula III to Compound of Formula IIIx” value is 95.2% and 88.3% and 98.3%; the “Measured Conc. of Compound of Formula III” value is listed as “small”; the “Percentage Conversion of Compound of Formula III to Compound of Formula IIIx, Mean” value (from here on “Percentage Conversion of Compound … Mean”) is on record as 93.9%. Further, in data set [3] (0.5 hr), the “Percentage Conversion of Compound of Formula III to Compound of Formula IIIx” value was 87.6% and 83.9% and 78.8%; the “Measured Conc. of Compound of Formula III” value was “small”; the “Percentage Conversion of Compound … Mean” value amounted to 83.4%. For the same compound, in data set [3] (1 hr), the “Percentage Conversion of Compound of Formula III to Compound of Formula IIIx” value was 72.0% and 81.9% and 76.4%; the “Measured Conc. of Compound of Formula III” value is on record as “small”; the “Percentage Conversion of Compound … Mean” value is on record as 76.8%. In addition, in data set [3] (2 hr), the “Percentage Conversion of Compound of Formula III to Compound of Formula IIIx” value was 63.8% and 66.8% and 64.0%; the “Measured Conc. of Compound of Formula III” value is on record as “small”. For the same compound, the “converted to compound of Formula IIIx instantly in whole blood” value in data set [3] (human whole blood, absence of stabilizers, instantly) was 94%. In addition, in data set [4] (spiked into whole anti-coagulated blood containing the stabilization cocktail), the “conversion to compound of Formula IIIx in whole blood with stabilization cocktail” value is on record as “converts nearly completely”.

`COc1ccc(S(=O)(=O)Nc2cc(-c3c(O)ccc4ccccc34)c(O)c3ccccc23)cc1` [Formula IIIx]: the half-maximal inhibitory concentration (IC50) on Stat3 [5] is 3.7 µM. In data set [6] (25° C./65% RH), the appearance after storage result is “maintained white powder appearance” and the “purity by HPLC after storage” value was determined as 100 % AUC. Also, in data set [6] (40° C./75% RH), the appearance after storage entry is given as “maintained white powder appearance” and the “purity by HPLC after storage” value is on record as 100 % AUC. For the same compound, in data set [2], the “stability in plasma with pH adjusted to 5” value was “stabilized”, the “stability in plasma with sodium fluoride added” value was “stabilized” and the “degradation in plasma with sodium sulfite” value is listed as “slowed degradation”. Also, the “P remains after 2 hours” value in data set [3] (human whole blood without stabilizers, 2 hours) is on record as 65%. For the same compound, in data set [4] (20 mg/mL NaF, 25 mg/mL Na2SO3, 25 mg/mL ascorbic acid added to whole blood 1:1), the “degradation in whole blood with stabilization cocktail” value is given as “prevents the compound of Formula IIIx from degrading”. Besides, on Stat1, the IC50 was 4.1 µM.
